Patent US20260274832A1, “COMPOUNDS AND THEIR USE IN TREATING CANCER” (ASTRAZENECA AB, priority 2023, published 2026)

Experiments:
[1] = molecular target: T1, AR (AR-full length) in LNCaP cells (Homo sapiens, UniProt P10275, T878A); experiment: LNCaP Androgen Receptor Imaging Assay (immunofluorescence of endogenous nuclear AR); format: cell-based; conditions: 24 h incubation; for DC50: concentration giving 50% of maximum degradation of AR per curve fit, single experiment or average of two or more; for Dmax: LNCaP, maximum degradation observed, normalized as % of positive control (prior art AR PROTAC at 3 μM)
T1 construct: the prostate cancer cell line LNCaP (expressing AR-full length); endogenous in cells; host or cells: LNCaP
T1 sequence (P10275 whole entry T878A): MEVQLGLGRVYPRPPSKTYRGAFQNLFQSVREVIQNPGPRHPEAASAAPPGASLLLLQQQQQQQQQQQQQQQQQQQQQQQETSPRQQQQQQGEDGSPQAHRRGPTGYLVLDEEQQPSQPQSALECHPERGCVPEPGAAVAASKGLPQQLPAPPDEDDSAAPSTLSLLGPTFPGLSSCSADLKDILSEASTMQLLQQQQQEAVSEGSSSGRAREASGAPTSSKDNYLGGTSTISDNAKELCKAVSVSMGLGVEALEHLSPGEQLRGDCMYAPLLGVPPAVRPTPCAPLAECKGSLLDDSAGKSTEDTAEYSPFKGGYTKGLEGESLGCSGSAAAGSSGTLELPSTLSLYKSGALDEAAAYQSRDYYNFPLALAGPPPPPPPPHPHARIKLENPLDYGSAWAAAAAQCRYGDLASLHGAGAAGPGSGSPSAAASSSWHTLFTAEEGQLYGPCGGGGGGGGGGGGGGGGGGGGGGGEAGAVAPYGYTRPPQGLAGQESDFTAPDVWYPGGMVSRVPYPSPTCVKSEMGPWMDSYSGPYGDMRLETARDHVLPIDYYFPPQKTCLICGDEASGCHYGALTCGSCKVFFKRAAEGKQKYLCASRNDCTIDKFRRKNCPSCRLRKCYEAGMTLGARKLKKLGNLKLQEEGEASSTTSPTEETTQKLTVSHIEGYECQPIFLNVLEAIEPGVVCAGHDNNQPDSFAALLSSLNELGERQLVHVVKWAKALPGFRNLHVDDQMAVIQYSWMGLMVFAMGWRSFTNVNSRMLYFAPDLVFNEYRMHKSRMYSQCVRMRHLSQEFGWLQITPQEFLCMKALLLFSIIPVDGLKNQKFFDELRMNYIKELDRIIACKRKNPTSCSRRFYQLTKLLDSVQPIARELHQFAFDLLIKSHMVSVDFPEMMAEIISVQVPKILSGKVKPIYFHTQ
T1 sequence (Q96SW2 whole entry partner): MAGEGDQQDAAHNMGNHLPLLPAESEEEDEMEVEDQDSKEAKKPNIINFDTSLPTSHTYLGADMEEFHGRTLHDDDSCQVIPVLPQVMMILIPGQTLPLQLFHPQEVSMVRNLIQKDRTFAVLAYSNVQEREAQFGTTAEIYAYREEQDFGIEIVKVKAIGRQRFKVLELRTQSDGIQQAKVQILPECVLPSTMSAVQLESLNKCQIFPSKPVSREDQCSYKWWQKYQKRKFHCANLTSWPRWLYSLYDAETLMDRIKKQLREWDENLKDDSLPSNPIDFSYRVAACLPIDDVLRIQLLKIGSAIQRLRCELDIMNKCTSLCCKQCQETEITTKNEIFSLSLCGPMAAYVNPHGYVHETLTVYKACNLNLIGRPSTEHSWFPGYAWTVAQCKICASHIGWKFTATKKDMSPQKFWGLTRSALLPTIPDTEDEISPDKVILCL
Summary of the method: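 LNCaP cells (12,000/well) received a 12-point compound dose series (0.3% DMSO) for 24 h at 37° C., then were PFA-fixed and stained for AR (AR441) and nuclei (DRAQ5). Nuclear AR was quantified by imaging, normalized to a 3 μM AR PROTAC control; DC50 and Dmax came from Hill/bell curve fits.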

[2] = molecular target: T2, AR (L702H) in LNCaP cells (Homo sapiens, UniProt P10275, L702H/T878A); experiment: LNCaP Androgen Receptor L702H Imaging Assay (LNCaP cells engineered by CRISPR/Cas9); format: cell-based; conditions: LNCaP cells with AR L702H mutation, 24 h incubation; for DC50: concentration giving 50% of maximum degradation of AR (L702H) per curve fit; for Dmax: LNCaP, maximum degradation observed, normalized as % of positive control
T2 construct: engineered to introduce the mutation L702H into the AR gene using CRISPR/Cas9; endogenous in cells; host or cells: LNCaP cells edited by CRISPR/Cas9 at the AR gene
T2 sequence (P10275 whole entry L702H/T878A): as the sequence (P10275 whole entry T878A) above, with L702H counted along it
T2 sequence (Q96SW2 whole entry partner): as the sequence (Q96SW2 whole entry partner) above
Summary of the method: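 CRISPR-engineered LNCaP cells carrying AR L702H were treated 24 h at 37 °C with a 12-point compound dose response (0.3% DMSO), then fixed and immunostained for AR with DRAQ5 nuclear counterstain. Nuclear AR was quantified by imaging, normalized to positive control; DC50 and Dmax came from Hill or bell-shaped fits.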

DC50 [1] [nM] | Dmax [1] [%] | DC50 [2] [nM] | Dmax [2] [%] | Structure (SMILES)
7 | 98 | 12 | 102 | COc1nc(N2CCN(CC3CCN(c4ccc(C5CCN(c6ccc(Cl)c7c(C#N)c[nH]c67)CC5)cc4)CC3)CC2)cc2c1C(=O)N(C1CCC(=O)NC1=O)C2 (centres unmarked) [Example 34, 4-Chloro-7-(4-{4-[4-({4-[2-(2,6-dioxopiperidin-3-yl)-4-methoxy-3-oxo-2,3-dihydro-1H-pyrrolo[3,4-c]pyridin-6-yl]piperazin-1-yl}methyl)piperidin-1-yl]phenyl}piperidin-1-yl)-1H-indole-3-carbonitrile]
15 | 90 | 11 | 100 | COc1nc(N2CCN(CC3CCN(c4ccc(C5CCN(c6ccc(F)c7c(C#N)c[nH]c67)CC5)cc4)CC3)CC2)cc2c1C(=O)N(C1CCC(=O)NC1=O)C2 (centres unmarked) [Example 37, 7-(4-{4-[4-({4-[2-(2,6-Dioxopiperidin-3-yl)-4-methoxy-3-oxo-2,3-dihydro-1H-pyrrolo[3,4-c]pyridin-6-yl]piperazin-1-yl}methyl)piperidin-1-yl]phenyl}piperidin-1-yl)-4-fluoro-1H-indole-3-carbonitrile]
9 | 97 | 12 | 95 | COc1nc(N2CCN(CC3CCN(c4ccc([C@@H]5CCCN(c6ccc(Cl)c7c(C#N)c[nH]c67)C5)cc4)CC3)CC2)cc2c1C(=O)N(C1CCC(=O)NC1=O)C2 (stereo partly drawn) [Example 38, 4-Chloro-7-[(3S)-3-{4-[4-({4-[2-(2,6-dioxopiperidin-3-yl)-4-methoxy-3-oxo-2,3-dihydro-1H-pyrrolo[3,4-c]pyridin-6-yl]piperazin-1-yl}methyl)piperidin-1-yl]phenyl}piperidin-1-yl]-1H-indole-3-carbonitrile]
17 | 98 | 29 | 95 | COc1cc(N2CCN(CC3CCN(c4ccc(C5CCN(c6ccc(C)c7c(C#N)c[nH]c67)CC5)c(F)c4)CC3)CC2)cc2c1C(=O)N(C1CCC(=O)NC1=O)C2 (centres unmarked) [Example 41, 7-(4-{4-[4-({4-[2-(2,6-Dioxopiperidin-3-yl)-7-methoxy-1-oxo-2,3-dihydro-1H-isoindol-5-yl]piperazin-1-yl}methyl)piperidin-1-yl]-2-fluorophenyl}piperidin-1-yl)-4-methyl-1H-indole-3-carbonitrile]
29 | 101 | 62 | 107 | Cc1ccc(N2CCC(c3ccc(N4CCC(CN5CCC(n6ccc7c(N8CCC(=O)NC8=O)cccc76)CC5)CC4)cc3F)CC2)c2[nH]cc(C#N)c12 [Example 42, 7-(4-{4-[4-({4-[4-(2,4-Dioxo-1,3-diazinan-1-yl)-1H-indol-1-yl]piperidin-1-yl}methyl)piperidin-1-yl]-2-fluorophenyl}piperidin-1-yl)-4-methyl-1H-indole-3-carbonitrile]
73 | 94 | 160 | 97 | COc1cc(N2CCN(CC3CCN(c4ccc(C5CCN(c6ccc(C)c7c(C#N)c[nH]c67)CC5)c(F)c4)CC3)CC2)cc2c1C(=O)N(C1CCC(=O)NC1=O)C2=O (centres unmarked) [Example 43, 7-(4-{4-[4-({4-[2-(2,6-Dioxopiperidin-3-yl)-7-methoxy-1,3-dioxo-2,3-dihydro-1H-isoindol-5-yl]piperazin-1-yl}methyl)piperidin-1-yl]-2-fluorophenyl}piperidin-1-yl)-4-methyl-1H-indole-3-carbonitrile]
3 | 96 | 6 | 95 | N#Cc1c[nH]c2c(N3CCC(c4ccc(OCCCCN5CCN(c6ccc7c(c6)CN(C6CCC(=O)NC6=O)C7=O)CC5)cc4)CC3)ccc(Cl)c12 (centres unmarked) [Example 45]
7 | 84 | 7 | 100 | COc1nc(N2CCN(CC3CCN(c4ccc([C@H]5CCCN(c6ccc(Cl)c7c(C#N)c[nH]c67)C5)cc4)CC3)CC2)cc2c1C(=O)N(C1CCC(=O)NC1=O)C2 (stereo partly drawn) [Example 47, 4-Chloro-7-[(3R)-3-{4-[4-({4-[2-(2,6-dioxopiperidin-3-yl)-4-methoxy-3-oxo-2,3-dihydro-1H-pyrrolo[3,4-c]pyridin-6-yl]piperazin-1-yl}methyl)piperidin-1-yl]phenyl}piperidin-1-yl]-1H-indole-3-carbonitrile]
33 | 91 | 45 | 97 | COc1cc(N2CCN(CC3CCN(c4ccc(C5CCN(c6ccc(Cl)c7c(C#N)c[nH]c67)CC5)cc4)CC3)CC2)cc2c1C(=O)N(C1CCC(=O)NC1=O)C2=O (centres unmarked) [Example 49, 4-Chloro-7-(4-{4-[4-({4-[2-(2,6-dioxopiperidin-3-yl)-7-methoxy-1,3-dioxo-2,3-dihydro-1H-isoindol-5-yl]piperazin-1-yl}methyl)piperidin-1-yl]phenyl}piperidin-1-yl)-1H-indole-3-carbonitrile]
37 | 101 | 71 | 96 | N#Cc1c[nH]c2c(N3CCC(c4ccc(N5CCC(CN6CCN(c7cc8c(cc7F)C(=O)N(C7CCC(=O)NC7=O)C8=O)CC6)CC5)cc4)CC3)ccc(Cl)c12 (centres unmarked) [Example 51, 4-Chloro-7-(4-{4-[4-({4-[2-(2,6-dioxopiperidin-3-yl)-6-fluoro-1,3-dioxo-2,3-dihydro-1H-isoindol-5-yl]piperazin-1-yl}methyl)piperidin-1-yl]phenyl}piperidin-1-yl)-1H-indole-3-carbonitrile]
62 | 93 | 52 | 97 | N#Cc1c[nH]c2c(N3CCC(c4ccc(N5CCC(CN6CCN(c7cc8c(cc7F)C(=O)N(C7CCC(=O)NC7=O)C8=O)CC6)CC5)cc4)CC3)ccc(F)c12 (centres unmarked) [Example 52, 7-(4-{4-[4-({4-[2-(2,6-Dioxopiperidin-3-yl)-6-fluoro-1,3-dioxo-2,3-dihydro-1H-isoindol-5-yl]piperazin-1-yl}methyl)piperidin-1-yl]phenyl}piperidin-1-yl)-4-fluoro-1H-indole-3-carbonitrile]
30 | 99 | 78 | 103 | N#Cc1c[nH]c2c(N3CCC[C@@H](c4ccc(N5CCC(CN6CCN(c7cc8c(cc7F)C(=O)N(C7CCC(=O)NC7=O)C8=O)CC6)CC5)cc4)C3)ccc(Cl)c12 (stereo partly drawn) [Example 53, 4-Chloro-7-[(3S)-3-{4-[4-({4-[2-(2,6-dioxopiperidin-3-yl)-6-fluoro-1,3-dioxo-2,3-dihydro-1H-isoindol-5-yl]piperazin-1-yl}methyl)piperidin-1-yl]phenyl}piperidin-1-yl]-1H-indole-3-carbonitrile]

Structure (SMILES) | DC50 [1] [nM] | Dmax [1] [%] | DC50 [2] [nM] | Dmax [2] [%]
N#Cc1c[nH]c2c(N3CCC(c4ccc(OCCCCN5CCC(n6ccc7c(N8CCC(=O)NC8=O)cccc76)CC5)cc4)CC3)ccc(F)c12 [Example 33, 7-{4-[4-(4-{4-[4-(2,4-Dioxo-1,3-diazinan-1-yl)-1H-indol-1-yl]piperidin-1-yl}butoxy)phenyl]piperidin-1-yl}-4-fluoro-1H-indole-3-carbonitrile] | 12 | 97 | 33 | 90
N#Cc1c[nH]c2c(N3CCC(c4ccc(OCCCCN5CCN(c6ccc7c(c6)CN(C6CCC(=O)NC6=O)C7=O)CC5)cc4)CC3)ccc(F)c12 (centres unmarked) [Example 44, 7-{4-[4-(4-{4-[2-(2,6-Dioxopiperidin-3-yl)-1-oxo-2,3-dihydro-1H-isoindol-5-yl]piperazin-1-yl}butoxy)phenyl]piperidin-1-yl}-4-fluoro-1H-indole-3-carbonitrile] | 4 | 95 | 2 | 96
N#Cc1c[nH]c2c(N3CCC(c4ccc(OCCCCN5CCC(n6ccc7c(N8CCC(=O)NC8=O)cccc76)CC5)cc4)CC3)ccc(Cl)c12 [Example 46, 4-Chloro-7-{4-[4-(4-{4-[4-(2,4-dioxo-1,3-diazinan-1-yl)-1H-indol-1-yl]piperidin-1-yl}butoxy)phenyl]piperidin-1-yl}-1H-indole-3-carbonitrile] | 4 | 101 | 12 | 98
COc1cc(N2CCN(CCCCOc3ccc(C4CCN(c5ccc(C)c6c(C#N)c[nH]c56)CC4)cc3)CC2)cc2c1C(=O)N(C1CCC(=O)NC1=O)C2=O (centres unmarked) [Example 48, 7-{4-[4-(4-{4-[2-(2,6-Dioxopiperidin-3-yl)-7-methoxy-1,3-dioxo-2,3-dihydro-1H-isoindol-5-yl]piperazin-1-yl}butoxy)phenyl]piperidin-1-yl}-4-methyl-1H-indole-3-carbonitrile] | 57 | 97 | 359 | 99
Cc1ccc(N2CCC(c3ccc(OCCCCN4CCN(c5cc6c(cc5F)C(=O)N(C5CCC(=O)NC5=O)C6=O)CC4)cc3)CC2)c2[nH]cc(C#N)c12 (centres unmarked) [Example 50, 7-{4-[4-(4-{4-[2-(2,6-Dioxopiperidin-3-yl)-6-fluoro-1,3-dioxo-2,3-dihydro-1H-isoindol-5-yl]piperazin-1-yl}butoxy)phenyl]piperidin-1-yl}-4-methyl-1H-indole-3-carbonitrile] | 137 | 98 | 769 | 94
